Test system: 323965-272-R-J2-PDC complex spheroid growth, % test/control
Assay: Anticancer human tumor 323965-272-R-J2-PDC patient-derived pancreatic carcinoma cell line growth inhibition [Asc]
Details: for IC50: curve of first compound; for viability, T/C: stronger effect = lower value
Procedure, shortened: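 Complex solid-tumor spheroids incorporating human endothelial and mesenchymal stem cells received single agents or combinations over half-log dilution ranges anchored to clinical Cmax.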

[1] = second compound 0.00949 µM, first compound 0.0316 µM
[2] = second compound 0.00949 µM, first compound 0.1 µM
[3] = second compound 0.00949 µM, first compound 0.316 µM
[4] = second compound 0.00949 µM, first compound 1 µM
[5] = second compound 0.03 µM, first compound 0.0316 µM
[6] = second compound 0.03 µM, first compound 0.1 µM
[7] = second compound 0.03 µM, first compound 0.316 µM
[8] = second compound 0.03 µM, first compound 1 µM
[9] = second compound 0.0949 µM, first compound 0.0316 µM
[10] = second compound 0.0949 µM, first compound 0.1 µM
[11] = second compound 0.0949 µM, first compound 0.316 µM
[12] = second compound 0.0949 µM, first compound 1 µM
[13] = second compound 0.3 µM, first compound 0.0316 µM
[14] = second compound 0.3 µM, first compound 0.1 µM
[15] = second compound 0.3 µM, first compound 0.316 µM
[16] = second compound 0.3 µM, first compound 1 µM
[17] = second compound 0.949 µM, first compound 0.0316 µM
[18] = second compound 0.949 µM, first compound 0.1 µM
[19] = second compound 0.949 µM, first compound 0.316 µM
[20] = second compound 0.949 µM, first compound 1 µM
[21] = second compound 3 µM, first compound 0.0316 µM
[22] = second compound 3 µM, first compound 0.1 µM
[23] = second compound 3 µM, first compound 0.316 µM
[24] = second compound 3 µM, first compound 1 µM
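Note: compound exposure lasted 7 days starting three days after spheroid seeding.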
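Throughout, for viability, T/C: 100% = DMSO vehicle control wells with viability set relative to vehicle.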

In the case of `O=C(c1ccc(F)c(F)c1Nc1ccc(I)cc1F)N1CC(O)([C@@H]2CCCCN2)C1` + CCN1C(C(=O)NC23CCC(C(=O)O)(CC2)CC3)C(c2cccc(Cl)c2F)C2(C(=O)Nc3cc(Cl)ccc32)C12CCCCC2, the IC50 (second compound 0.00949 µM) is reported as 119 nM, the IC50 (second compound 0.03 µM) is reported as 150 nM and the IC50 (second compound 0.0949 µM) is reported as 127 nM. For the same molecule, the IC50 (second compound 0.3 µM) was 134 nM, the IC50 (second compound 0.949 µM) was 121 nM and the IC50 (second compound 3 µM) was 81 nM. The viability, T/C (second compound 0.00949 µM, first compound 0.00316 µM) was 110%, the viability, T/C (second compound 0.00949 µM, first compound 0.01 µM) was 88.1% and the viability, T/C [1] was 75%. For the same molecule, the viability, T/C [2] was 52.1%, the viability, T/C [3] was 32.1% and the viability, T/C [4] was 19.9%. The viability, T/C (second compound 0.03 µM, first compound 0.00316 µM) was 113%, the viability, T/C (second compound 0.03 µM, first compound 0.01 µM) was 92% and the viability, T/C [5] was 86.3%. The viability, T/C [6] was 57.3%, the viability, T/C [7] was 33.6% and the viability, T/C [8] was 19.4%. For the same molecule, the viability, T/C (second compound 0.0949 µM, first compound 0.00316 µM) was 103%, the viability, T/C (second compound 0.0949 µM, first compound 0.01 µM) was 89.5% and the viability, T/C [9] was 75.2%. The viability, T/C [10] was 55.3%, the viability, T/C [11] was 32.7% and the viability, T/C [12] was 19.1%. For the same molecule, the viability, T/C (second compound 0.3 µM, first compound 0.00316 µM) was 93.7%, the viability, T/C (second compound 0.3 µM, first compound 0.01 µM) was 106% and the viability, T/C [13] was 75.7%. For the same molecule, the viability, T/C [14] was 54.6%, the viability, T/C [15] was 37.1% and the viability, T/C [16] was 19.2%. It also gave a viability, T/C (second compound 0.949 µM, first compound 0.00316 µM) of 96.3%, a viability, T/C (second compound 0.949 µM, first compound 0.01 µM) of 95.9% and a viability, T/C [17] of 72.9%. The viability, T/C [18] was 54%, the viability, T/C [19] was 33.4% and the viability, T/C [20] was 19.7%. It also gave a viability, T/C (second compound 3 µM, first compound 0.00316 µM) of 97.6%, a viability, T/C (second compound 3 µM, first compound 0.01 µM) of 85.2% and a viability, T/C [21] of 65.6%. The viability, T/C [22] was 46.7%, the viability, T/C [23] was 29.6% and the viability, T/C [24] was 18.3%.
For `C#Cc1c(F)ccc2cc(O)cc(-c3ncc4c(N5CC6CCC(C5)N6)nc(OCC56CCCN5CC(F)C6)nc4c3F)c12` (centres undefined) + CCN1C(C(=O)NC23CCC(C(=O)O)(CC2)CC3)C(c2cccc(Cl)c2F)C2(C(=O)Nc3cc(Cl)ccc32)C12CCCCC2, the IC50 (second compound 0.00949 µM) was > 10000 nM, the IC50 (second compound 0.03 µM) was > 10000 nM and the IC50 (second compound 0.0949 µM) was > 10000 nM. For the same molecule, the IC50 (second compound 0.3 µM) was > 10000 nM, the IC50 (second compound 0.949 µM) was > 10000 nM and the IC50 (second compound 3 µM) was > 10000 nM. It also gave a viability, T/C [1] of 100%, a viability, T/C [2] of 100% and a viability, T/C [3] of 98.2%. The viability, T/C [4] was 92.6%, the viability, T/C (second compound 0.00949 µM, first compound 3.16 µM) was 81.2% and the viability, T/C (second compound 0.00949 µM, first compound 10 µM) was 59.4%. The viability, T/C [5] was 107%, the viability, T/C [6] was 102% and the viability, T/C [7] was 102%. The viability, T/C [8] was 106%, the viability, T/C (second compound 0.03 µM, first compound 3.16 µM) was 83.8% and the viability, T/C (second compound 0.03 µM, first compound 10 µM) was 63.1%. It also gave a viability, T/C [9] of 104%, a viability, T/C [10] of 108% and a viability, T/C [11] of 94.1%. For the same molecule, the viability, T/C [12] was 88.9%, the viability, T/C (second compound 0.0949 µM, first compound 3.16 µM) was 70.8% and the viability, T/C (second compound 0.0949 µM, first compound 10 µM) was 64.2%. For the same molecule, the viability, T/C [13] was 105%, the viability, T/C [14] was 110% and the viability, T/C [15] was 112%. It also gave a viability, T/C [16] of 91.9%, a viability, T/C (second compound 0.3 µM, first compound 3.16 µM) of 78.6% and a viability, T/C (second compound 0.3 µM, first compound 10 µM) of 59.8%. It also gave a viability, T/C [17] of 101%, a viability, T/C [18] of 104% and a viability, T/C [19] of 102%. The viability, T/C [20] was 89.7%, the viability, T/C (second compound 0.949 µM, first compound 3.16 µM) was 79.3% and the viability, T/C (second compound 0.949 µM, first compound 10 µM) was 64.8%. It also gave a viability, T/C [21] of 102%, a viability, T/C [22] of 102% and a viability, T/C [23] of 97.8%. For the same molecule, the viability, T/C [24] was 84.7%, the viability, T/C (second compound 3 µM, first compound 3.16 µM) was 63.1% and the viability, T/C (second compound 3 µM, first compound 10 µM) was 67.9%.

— PubChem BioAssay AID1963425 (Molecular Pharmacology Branch, DTP, NCI, 2024)
